Earlier results, collected in PubChem BioAssay AID1259409 (Chemical Carcinogenesis Research Information System (CCRIS), 2018).

Test system: rodent chemically induced tumor inhibition, incidence and multiplicity
Assay: CCRIS tumor inhibitor studies
Settings: for outcome: Carcinogen: 7,12-Dimethylbenz(a)anthracene, 57-97-6, Route [Inhibitor]: Oral (gavage), Species: Rat, Strain/Sex: (16/Group), Target Tissue: Type of Lesion: Mammary Gland: tumor, Dose [Carcinogen]: 100 mg/kg once at 50 days of age, Promoter: None

CC1=C(/C=C/C(C)=C/C=C/C(C)=C/C(=O)NCC(O)CO)C(C)(C)CCC1 (configuration not stated)
tumour outcome (control, treated, inhibition, significance) (Carcinogen: N-BUTYL-N-(4-HYDROXYBUTYL)NITROSAMINE, 3817-11-6, Dose [Inhibitor]: 1.5 MMOL/KG/D IN DIET FOR 108 D STARTING 1 WK POST CARCINOGEN TREATMENT (STUDY DURATION: 171 D), Route [Inhibitor]: ORAL, Species: MOUSE, Strain/Sex: BDF/MALE, Target Tissue: Type of Lesion: URINARY BLADDER: TRANSITIONAL CELL CARCINOMA, Dose [Carcinogen]: 5 MG 2/WK FOR 9 WK, Promoter: NONE USED): 31/55 (56%), 25/54 (46%), 18%, not significant
tumour outcome (control, treated, inhibition, significance) (Carcinogen: N-NITROSOBIS(2-OXOPROPYL)AMINE, 60599-38-4, Dose [Inhibitor]: 0.25 MMOL/KG OF DIET FOR 184 D STARTING 2 WK AFTER LAST CARCINOGEN DOSE WITH 4 INTERMITTENT 1 WK REST PERIODS OF VEHICLE, Route [Inhibitor]: ORAL, Species: HAMSTER, Strain/Sex: SYRIAN/FEMALE, Target Tissue: Type of Lesion: PANCREAS: CARCINOMA, Dose [Carcinogen]: 20 MG/KG INJECTION GIVEN TWICE 1 WK APART, Promoter: NONE USED): 38%, 35%, 8%, not calculated
tumour outcome (control, treated, inhibition, significance) (Carcinogen: N-NITROSOBIS(2-OXOPROPYL)AMINE, 60599-38-4, Dose [Inhibitor]: 0.25 MMOL/KG OF DIET FOR 184 D STARTING 2 WK AFTER LAST CARCINOGEN DOSE WITH 4 INTERMITTENT 1 WK REST PERIODS OF VEHICLE, Route [Inhibitor]: ORAL, Species: HAMSTER, Strain/Sex: SYRIAN/MALE, Target Tissue: Type of Lesion: PANCREAS: CARCINOMA, Dose [Carcinogen]: 20 MG/KG INJECTION GIVEN TWICE 1 WK APART, Promoter: NONE USED): 34%, 43%, -26%, not calculated
tumour outcome (control, treated, inhibition, significance) (Carcinogen: N-NITROSOBIS(2-OXOPROPYL)AMINE, 60599-38-4, Dose [Inhibitor]: 0.25 MMOL/KG OF DIET FOR 350 D STARTING 2 WK AFTER LAST CARCINOGEN DOSE AND INTERRUPTED TWICE BY 1 WK REST PERIODS OF VE, Route [Inhibitor]: ORAL, Species: HAMSTER, Strain/Sex: SYRIAN/FEMALE, Target Tissue: Type of Lesion: LIVER: HEPATOCELLULAR CARCINOMA, Dose [Carcinogen]: 20 MG/KG INJECTION GIVEN TWICE 1 WK APART, Promoter: NONE USED): 5%, 28%, -460%, not calculated
tumour outcome (control, treated, inhibition, significance) (Carcinogen: N-NITROSOBIS(2-OXOPROPYL)AMINE, 60599-38-4, Dose [Inhibitor]: 0.25 MMOL/KG OF DIET FOR 350 D STARTING 2 WK AFTER LAST CARCINOGEN DOSE AND INTERRUPTED TWICE BY 1 WK REST PERIODS OF VE, Route [Inhibitor]: ORAL, Species: HAMSTER, Strain/Sex: SYRIAN/MALE, Target Tissue: Type of Lesion: LIVER: HEPATOCELLULAR CARCINOMA, Dose [Carcinogen]: 20 MG/KG INJECTION GIVEN TWICE 1 WK APART, Promoter: NONE USED): 7%, 14%, -100%, not calculated
tumour outcome (control, treated, inhibition, significance) (Carcinogen: N-NITROSOBIS(2-OXOPROPYL)AMINE, 60599-38-4, Dose [Inhibitor]: 0.5 MMOL/KG OF DIET FOR 153 D STARTING 2 WK AFTER LAST CARCINOGEN DOSE WITH 4 INTERMITTENT 1 WK REST PERIODS OF VEHICLE-, Route [Inhibitor]: ORAL, Species: HAMSTER, Strain/Sex: SYRIAN/FEMALE, Target Tissue: Type of Lesion: LIVER: HEPATOCELLULAR CARCINOMA, Dose [Carcinogen]: 20 MG/KG INJECTION GIVEN TWICE 1 WK APART, Promoter: NONE USED): 5%, 0%, 100%, not calculated
tumour outcome (control, treated, inhibition, significance) (Carcinogen: N-NITROSOBIS(2-OXOPROPYL)AMINE, 60599-38-4, Dose [Inhibitor]: 0.5 MMOL/KG OF DIET FOR 153 D STARTING 2 WK AFTER LAST CARCINOGEN DOSE WITH 4 INTERMITTENT 1 WK REST PERIODS OF VEHICLE-, Route [Inhibitor]: ORAL, Species: HAMSTER, Strain/Sex: SYRIAN/FEMALE, Target Tissue: Type of Lesion: PANCREAS: NEOPLASM, Dose [Carcinogen]: 20 MG/KG INJECTION GIVEN TWICE 1 WK, Promoter: NONE USED): 38%, 21%, 45%, not calculated
tumour outcome (control, treated, inhibition, significance) (Carcinogen: N-NITROSOBIS(2-OXOPROPYL)AMINE, 60599-38-4, Dose [Inhibitor]: 0.5 MMOL/KG OF DIET FOR 153 D STARTING 2 WK AFTER LAST CARCINOGEN DOSE WITH 4 INTERMITTENT 1 WK REST PERIODS OF VEHICLE-, Route [Inhibitor]: ORAL, Species: HAMSTER, Strain/Sex: SYRIAN/MALE, Target Tissue: Type of Lesion: PANCREAS: CARCINOMA, Dose [Carcinogen]: 20 MG/KG INJECTION GIVEN TWICE 1 WK APART, Promoter: NONE USED): 34%, 36%, -6%, not calculated

COc1ccc(-c2oc3c(OC)c(OC)c(OC)c(OC)c3c(=O)c2OC)cc1OC
tumour outcome (control, treated, inhibition, significance) (Carcinogen: 7,12-DIMETHYLBENZ[A]ANTHRACENE [57-97-6], Dose [Inhibitor]: 85 NMOL IN 0.1 ML ACETONE 2X/WK FOR 20 WK 1 HR PRIOR TO EACH PROMOTER DOSE (STUDY DURATION: 21 WK), Route [Inhibitor]: DERMAL, Species: MOUSE, Strain/Sex: ICR/FEMALE, Target Tissue: Type of Lesion: SKIN: PAPILLOMA, Dose [Carcinogen]: 390 NMOL IN 0.1 ML ACETONE ONCE (STUDY DURATION: 21 WK), Promoter: 12-O-TETRADECANOYL-13-ACETATE [16561-29-8]): 100%, 80%, 20%, not calculated

CC(N)C(=O)NCC(=O)NC1CSSCC(C(=O)O)NC(=O)C(CO)NC(=O)C(C(C)O)NC(=O)C(Cc2ccccc2)NC(=O)C(C(C)O)NC(=O)C(CCCCN)NC(=O)C(Cc2c[nH]c3ccccc23)NC(=O)C(Cc2ccccc2)NC(=O)C(Cc2ccccc2)NC(=O)C(CC(N)=O)NC(=O)C(CCCCN)NC1=O (configuration not stated)
tumour outcome (control, treated, inhibition, significance) (Carcinogen: N-NITROSOMORPHOLINE, 59-89-2, Dose [Inhibitor]: 0, 200 UG/KG BW 1/2 D FOR DURATION OF STUDY (STUDY DURATION: 16 WK), Route [Inhibitor]: SUBCUTANEOUS, Species: RAT, Strain/Sex: SPRAGUE-DAWLEY/MALE, Target Tissue: Type of Lesion: LIVER: HEPATOCELLULAR CARCINOMA, Dose [Carcinogen]: 175 MG/L DRINKING WATER FOR 8 WK, Promoter: NONE USED): 8/25 (32%), 4/25 (16%), 50%, not significant

NC(=O)CC[C@H](N)C(=O)O
outcome (Dose [Inhibitor]: 0, 1 g/kg/day for 4 wks, study duration 4 wks): 93.8%, 31.2%
outcome (Dose [Inhibitor]: 0, 1 g/kg/day for 11 wks, study duration 11 wks): 93.8%, 43.7%

C#C[C@]1(O)CC[C@H]2[C@@H]3CCc4cc(O)ccc4[C@H]3[C@H](OC)C[C@@]21C
tumour outcome (control, treated, inhibition, significance) (Carcinogen: N-METHYL-N-NITROSOUREA, 684-93-5, Dose [Inhibitor]: 0, 24 UG 3/WK FOR THE DURATION OF STUDY BEGINNING 7 D PRIOR TO CARCINOGEN DOSE (STUDY DURATION: 187 D), Route [Inhibitor]: SUBCUTANEOUS, Species: RAT, Strain/Sex: SPRAGUE-DAWLEY/FEMALE, Target Tissue: Type of Lesion: MAMMARY GLAND: TUMOR, Dose [Carcinogen]: 50 MG/KG BW ONCE, Promoter: NONE USED): 100%, 90%, 10%, not significant
tumour outcome (control, treated, inhibition, significance) (Carcinogen: N-METHYL-N-NITROSOUREA, 684-93-5, Dose [Inhibitor]: 10 UG DAILY STARTING SIMULTANEOUSLY WITH CARCINOGEN TREATMENT AND CONTINUING FOR DURATION OF STUDY (STUDY DURATION: 145, Route [Inhibitor]: INJECTION, Species: RAT, Strain/Sex: SPRAGUE-DAWLEY/FEMALE, Target Tissue: Type of Lesion: MAMMARY GLAND: TUMOR, Dose [Carcinogen]: 5 MG/100 G BW AT 0, 4 AND 8 WK OF STUDY, Promoter: NONE USED): 86%, 54%, 37%, not calculated

CC1(C)CC[C@]2(C(=O)O)CC[C@]3(C)C(=CC[C@@H]4[C@@]5(C)CC[C@H](O)C(C)(C)[C@@H]5CC[C@]43C)[C@@H]2C1
tumour outcome (control, treated, inhibition, significance) (Carcinogen: AZOXYMETHANE, 25843-45-2, Dose [Inhibitor]: 0, 0.02% IN DIET IN WK 1-3 OF STUDY FOLLOWED BY BASAL DIET FOR DURATION OF STUDY (STUDY DURATION: 1 YR), Route [Inhibitor]: ORAL, Species: RAT, Strain/Sex: F344/MALE, Target Tissue: Type of Lesion: LARGE INTESTINE: ADENOCARCINOMA, Dose [Carcinogen]: 15 MG/KG BW 1/WK IN WK 1 AND 2 OF STUDY, Promoter: NONE USED): 13/27 (48%), 6/29 (21%), 56%, not calculated
tumour outcome (control, treated, inhibition, significance) (Carcinogen: AZOXYMETHANE, 25843-45-2, Dose [Inhibitor]: 0, 0.02% IN DIET IN WK 1-3 OF STUDY FOLLOWED BY BASAL DIET FOR DURATION OF STUDY (STUDY DURATION: 1 YR), Route [Inhibitor]: ORAL, Species: RAT, Strain/Sex: F344/MALE, Target Tissue: Type of Lesion: LARGE INTESTINE: ADENOMA, Dose [Carcinogen]: 15 MG/KG BW 1/WK IN WK 1 AND 2 OF STUDY, Promoter: NONE USED): 6/27 (22%), 8/29 (28%), -27%, not significant
tumour outcome (control, treated, inhibition, significance) (Carcinogen: AZOXYMETHANE, 25843-45-2, Dose [Inhibitor]: 0, 0.02% IN DIET IN WK 1-3 OF STUDY FOLLOWED BY BASAL DIET FOR DURATION OF STUDY (STUDY DURATION: 1 YR), Route [Inhibitor]: ORAL, Species: RAT, Strain/Sex: F344/MALE, Target Tissue: Type of Lesion: SMALL INTESTINE: ADENOCARCINOMA, Dose [Carcinogen]: 15 MG/KG BW 1/WK IN WK 1 AND 2 OF STUDY, Promoter: NONE USED): 6/27 (22%), 3/29 (10%), 55%, not calculated
